Each structure is given as a SMILES string. Structures can show the parent of a compound that is named as a salt.

The values below come from paper PMC11284600, “Many human pharmaceuticals are weak inhibitors of the cytochrome P450 system in rainbow trout (Oncorhynchus mykiss) liver S9 fractions” (Frontiers in Toxicology, 2024).

Series [1] in a line: Unbound fraction in RT-S9 by rapid equilibrium dialysis. It counts as in vitro ADME, rainbow trout (Oncorhynchus mykiss). Conditions: rainbow trout liver S9 fractions (RT-S9), 10 µM test substance, 1 mg/mL RT-S9, pH 7.8, 11°C, n = 3, read-out: Unbound fraction (fU,RT-S9). Here is the method:
The unbound (free) fractions of the test substances in RT-S9 (fU,RT-S9) were determined using rapid equilibrium dialysis assay (RED, Thermo Fisher Scientific), which exploits two-compartment inserts separated by a dialysis membrane with a molecular weight cut-off of 8,000 Da. In the RED assay, each test pharmaceutical (10 μM) was incubated in triplicate with RT-S9 (1 mg/mL) in 50 mM potassium phosphate buffer (pH 7.8) in a total volume of 300 µL on one side of the membrane (protein-containing chamber), and 350 μL of the plain phosphate buffer on the other side (protein-free chamber). To reach equilibrium, the samples were incubated on an orbital shaker (C25KC Incubator shaker, New Brunswick Scientific, 120 rpm) at 11°C for 4 h. Next, 50 µL aliquots were collected from both chambers separately and diluted by adding 50 µL of the plain buffer (to the protein-containing sample) or 50 μL of 1 mg/mL RT-S9 in the buffer (to the protein-free sample). Finally, the RT-S9 protein was precipitated by the addition of acetonitrile (+200 μL) to both samples separately, followed by incubation on ice for 30 min and centrifugation (16100 g, 15 min). The test substance concentrations in the supernatants of both samples were determined using liquid chromatography. The instrumentation and the analytical methods used for chromatographic analyses are described in detail in the Supplementary Table S2. The unbound fractions of the test substances in RT-S9 (fU,RT-S9) were calculated according to Eq. 3: fU,RT−S9=1− PC−PF/PC (3) where [PC] and [PF] are the test substance concentrations in the samples collected from protein-containing and protein-free chambers, respectively. To account for the test substance’s binding to the RT-S9, the nominal IC50 values were corrected for unbound fraction (fU,RT-S9) according to Eq. 4: Unbound IC50=Nominal IC50×fU,RT−S9 (4)
On the technique in general: In equilibrium dialysis free small molecules cross a membrane that holds back macromolecules.

For series [2], the system named is CYP1A-like ethoxyresorufin O-deethylase (EROD) activity. The series is described as follows: in vitro. The note with it: both, Christophersen, Bornhoeved, rainbow trout (Oncorhynchus mykiss); for inhibition at 10 min: pH 7.8. Here is the method:
(§1) Commercially available rainbow trout (O. mykiss) liver S9 fractions were used as the enzyme source for the in vitro P450 inhibition assays (RTL-S9, total protein concentration 20 mg/mL, Primacyt Cell Culture Technology GmbH).
(§2) The inhibitory impacts of the test substances toward the rainbow trout liver P450 system in vitro were assessed based on EROD and BFCOD as the marker reactions for CYP1A- and CYP3A-like isoenzyme activities, respectively. […] In this study, the EROD (CYP1A) and BFCOD (CYP3A) activities were determined using 0.5 mg/mL RT-S9 (total protein) concentration and 1 or 2 mM NADPH, respectively. […] All incubations were performed in duplicate in a total volume of 100 µL of potassium phosphate buffer (0.1 M, pH 7.8), at 11°C ± 1°C on a thermostated orbital shaker (LLG Labware). The reactions were terminated by the addition of 37.5 μL of the quenching solution (0.5 M Trizma base/acetonitrile 20:80, v/v). […] The quantitation of the metabolites (resorufin or HFC) was based on linear regression of the respective standards prepared in the potassium phosphate buffer. Negative control incubations were performed separately without the marker substrate, without cofactors, and without RT-S9 to ensure that the detected fluorescence signals arise from the metabolic conversion of the marker substrates (ER or BFC) into their respective metabolites (resorufin or HFC, respectively).
(§3) In this study, the preincubation was performed using three different protocols A-C (Table 2). In the first protocol, the test substance (each separately at six different concentrations between 0.01 and 500 µM) and RT-S9 were preincubated without any cofactors, and the marker reaction was initiated by the addition of the marker substrate (ER or BFC) and NADPH (Protocol A). This enabled the determination of the inhibitory impact of the parent form of the test substance on the respective marker activity. In the second protocol, the test substance and RT-S9 were preincubated together with NADPH, and the marker reaction was initiated by the addition of the marker substrate (Protocol B). In this manner, the test substance could undergo P450 metabolism already during the preincubation step, which may reduce its concentration and thus the inhibitory impact toward the marker reactions, or result in the formation of reactive or inhibitory metabolites, which typically increases the inhibitory impact compared with the parent form (Protocol A). […] In this manner, the test substance could undergo both P450 and phase II metabolism already during the preincubation step, which may likewise reduce its concentration and inhibitory impact toward the marker reactions, and even help eliminate the possible reactive metabolites via glutathione conjugation. […] Additionally, positive control incubations of the marker substrates (ER or BFC) without the test substance (zero inhibitor concentration) were included in each series to determine the basal EROD or BFCOD activity in RT-S9.
(§4) The residual solvent concentration was kept constant at all inhibitor concentrations, including zero, to eliminate its impact on the IC50 concentrations derived from the empirical data. The IC50 shifts for Protocols B and C were calculated according to Eq. 2: IC50 shift=IC50,Protocol A/IC50,Protocol B or Protocol C (2)
(§5) In this manner, the impact of the test substance’s own metabolism (during the preincubation step) on the inhibitory impact could be evaluated.

Another series concerns CYP1A-like EROD activity. The series is described as follows: in vitro. Conditions: both, Christophersen, Bornhoeved, rainbow trout (Oncorhynchus mykiss). How it is done: as §1, §2, §3, §4, §5
Series [3] has as its system CYP1A-like ethoxyresorufin O-deethylase (EROD) activity in rainbow trout liver S9 fractions. The series is described as follows: in vitro. How it is done: as §1, §2, §3, §4, §5
The target of series [4] is T1, CYP3A-like BFCOD activity (Oncorhynchus mykiss, UniProt O42563).
T1 sequence (O42563 1-518): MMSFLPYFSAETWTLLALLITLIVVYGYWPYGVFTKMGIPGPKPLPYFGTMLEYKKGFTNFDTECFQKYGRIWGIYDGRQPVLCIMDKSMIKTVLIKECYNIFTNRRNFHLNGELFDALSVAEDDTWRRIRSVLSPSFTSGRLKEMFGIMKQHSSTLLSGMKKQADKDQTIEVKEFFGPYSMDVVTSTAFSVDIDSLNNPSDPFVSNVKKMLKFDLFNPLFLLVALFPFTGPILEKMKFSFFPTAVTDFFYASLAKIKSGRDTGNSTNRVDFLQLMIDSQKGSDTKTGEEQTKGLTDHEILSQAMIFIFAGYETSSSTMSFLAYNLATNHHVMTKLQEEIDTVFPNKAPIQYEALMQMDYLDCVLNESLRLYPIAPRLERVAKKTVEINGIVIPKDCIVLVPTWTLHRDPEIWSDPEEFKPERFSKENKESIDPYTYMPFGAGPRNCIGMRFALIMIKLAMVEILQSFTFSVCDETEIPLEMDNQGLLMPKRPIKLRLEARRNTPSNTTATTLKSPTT
The series is described as follows: BFCOD inhibition in RT-S9 (IC50 shift assay). The note with it: both, Christophersen, Bornhoeved, rainbow trout (Oncorhynchus mykiss). Here is the method:
as §1, §2, §3, §4, §5

For series [5], the target named is T2, CYP3A-like 7-benzyloxy-4-trifluoromethylcoumarin O-debenzylase (BFCOD) activity in rainbow trout liver S9 fractions (Oncorhynchus mykiss, UniProt O42563).
T2 sequence (O42563 1-518): T1 sequence (O42563 1-518)
The series is described as follows: BFCOD inhibition in RT-S9 (IC50 shift assay). Conditions: within the tested concentration range. How it is done: as §1, §2, §3, §4, §5

Details of series [6]: method as in Chemaxon. The note with it: pH 7.8; (e) empirical; ref Chemaxon; cited from earlier work.
Details of series [7]: method as in PubChem. The note with it: (e) empirical; ref PubChem; cited from earlier work.
Another series has as its system Human CYP1A. The note with it: ref Drugbank unless otherwise stated (Dragovic et al., 2013; Conard and Ober 1984; Niwa et al., 2005); cited from earlier work.
[8] abbreviates: pH 7.8, EROD inhibition in RT-S9, Nominal IC50.
Where [9] appears, read: pH 7.8, EROD inhibition in RT-S9, Unbound IC50.

Regarding `CNCC[C@@H](Oc1ccccc1C)c1ccccc1` [Atomoxetine, atomoxetine hydrochloride], in series [1], the fraction unbound at 4 h, 10 µM turned out to be 0.2 ± 0.03. Further, the inhibition at 10 min in series [2] is not above 50%. In addition, the half-maximal inhibitory concentration (IC50) at 10 min in series [2] (setting [8]) was more than 100 µM; in [2] (setting [9]) it was 20 ± 4 µM. Besides, the IC50 shift at 10 min in the series on CYP1A-like EROD activity (s9, pH 7.8, EROD inhibition in RT-S9, IC50 shift (A/B)) was 0.9 ± 0.1; with CYP1A-like EROD activity (s9, pH 7.8, EROD inhibition in RT-S9, IC50 shift (A/C)), 1.1. Moreover, in series [3], the “EROD inhibition in RT-S9 (in words)” value is “inhibited selectively only EROD activity”. Also, the IC50 at 20 min in series [4] (s9, pH 7.8) was more than 25 µM. Moreover, the “BFCOD inhibition in RT-S9 (in words)” value in series [5] was “did not significantly inhibit”. Further, the Water solubility in series [6] is given as 27.8 (e) mg/mL.

Consider `CN1CCN(C2=Nc3cc(Cl)ccc3Nc3ccccc32)CC1` [Clozapine, clozapine], for which the LogKOW in series [7] is reported as 3.23 (e). In [1], the fraction unbound at 4 h, 10 µM was 0.21 ± 0.05. Also, in series [2], the inhibition at 10 min is more than 50%. The IC50 at 10 min in series [2] (setting [8]) is 46 ± 9 µM; in series [2] (setting [9]) it was approximately 10 µM. The “Human CYP1A interactions: substrate status” value (from here on “Human CYP1A interactions”) with Human CYP1A is “Substrate”. Moreover, in [4] (s9, pH 7.8), the inhibition at 20 min was not above 50%. Also, the IC50 at 20 min was more than 100 µM in [4] (s9, pH 7.8, BFCOD inhibition in RT-S9, Nominal IC50, Protocol A: 30 min preincubation without cofactors, extrapolated); more than 100 µM in series [4] (s9, pH 7.8, BFCOD inhibition in RT-S9, Nominal IC50, Protocol B: 30 min preincubation w/NADPH (2 mM)); more than 100 µM in series [4] (s9, pH 7.8, BFCOD inhibition in RT-S9, Nominal IC50, Protocol C: 30 min preincubation w/all cofactors (NADPH, UDPGA, PAPS, glutathione)); 10 to 30 µM in series [4] (s9, pH 7.8, BFCOD inhibition in RT-S9, Unbound IC50, nominal IC50 of Protocol A × fU,RT-S9 (Eq. 4)).

`O=C(NCC1CCCCN1)c1cc(OCC(F)(F)F)ccc1OCC(F)(F)F` (centres unmarked) [Flecainide, flecainide acetate]: the fraction unbound at 4 h, 10 µM in series [1] came to 0.36 ± 0.03. In series [2], the inhibition at 10 min was not above 50%. Also, the IC50 at 10 min in [2] (setting [8]) is more than 100 µM. Besides, in [3], the “EROD inhibition in RT-S9 (in words)” value was “inhibited selectively only EROD activity” and inhibition was half-maximal at 82 ± 14 µM (IC50). The “Human CYP1A interactions” value in the series on Human CYP1A is on record as “Substrate”. The IC50 at 20 min in [4] (s9, pH 7.8) is more than 25 µM. Also, in series [5], the “BFCOD inhibition in RT-S9 (in words)” value is reported as “did not significantly inhibit”.

Take `CN(C)CCc1c[nH]c2ccc(C[C@H]3COC(=O)N3)cc12` [Zolmitriptan, zolmitriptan]: the LogKOW in series [7] is on record as 1.792 (e). The “Human CYP1A interactions” value in the series on Human CYP1A is “Substrate”. In addition, in series [5], the “BFCOD inhibition in RT-S9 (in words)” value was “did not significantly inhibit”.

By fraction unbound is commonly meant the share of the substance not bound to proteins or other matrix. As a reminder, the inhibition is the change of the read-out against control, counted positive when it falls. The IC50 is the midpoint of a concentration-inhibition curve.
